Where a name gives a salt, the structure may show the parent alone.
Columns and labels:
[1] = Inhibition of linoleic acid oxidation (ferric thiocyanate absorbance at 500 mμ); conditions: 0.2% by weight on linoleic acid basis, pH 9, 70° C.
Description: Inhibition of linoleic acid oxidation
A test solution (10 ml) was prepared by adding each test compound, in an amount of 0.2% by weight on the linoleic acid basis, to a borate buffer (pH 9) containing 10^-2 M sodium linoleate. A 0.2 ml portion of the test solution was heated at 70° C. for a specified period of time. After heating, 4.7 ml of 75% ethanol and 0.1 ml of 30% ammonium thiocyanate were added to said test solution, and the mixture was stirred well. Then, 0.1 ml of a ferrous chloride solution [the supernatant obtained by adding an aqueous ferrous sulfate solution (0.6 g/50 ml) and 10 ml of concentrated hydrochloric acid to an aqueous barium chloride solution (0.5 g/50 ml), followed by adequate stirring and standing for a while] was added to said mixture. Exactly 3 minutes later, the resulting solution was measured for the absorbance at 500 mμ. In this way, the trivalent iron formed by the oxidative action of sodium linoleate peroxides was assayed and, based on the assay data, the test compounds were compared with respect to antioxidant activity [cf. Shokuhin Kogaku Jikkensho (Experiments in Food Engineering), vol. I, edited by the Department of Food Engineering, Faculty of Agriculture, Kyoto University, pages 634-635]. The greater the absorbance of the test solution after heating is, the greater the amount of sodium linoleate peroxides formed is.

[2] = AOM (Antioxygen Method) test in ethyl linoleate, time till POV 100 meq/kg; conditions: 0.020 g per 100 g ethyl linoleate, aeration 2.33 cc/sec., 97.8° C.
Description: To each 100 g of ethyl linoleate was added 0.020 g of one of the test compounds indicated in Table 7 to prepare a test solution. A 20 ml portion of each test solution was exposed to the accelerated conditions of aeration of 2.33 cc/sec. at 97.8° C. in an AOM (Antioxygen Method) test and the time period till the POV (peroxide value) reached 100 meq/kg was determined.

[3] = Analgesic activity, acetic acid writhing test (mice); type: in vivo, Male ddY strain mice; conditions: 100 mg/kg, s.c., male ddY mice, groups of ten
[4] = Japanese Laid-Open Patent Publication No. 94382/1980; cited from earlier work
[5] = Analgesic activity, writhing test (rat); type: in vivo; conditions: i.p., 100 mg/kg
Description: (§1) β-(2,3-Dihydro-6-hydroxy-2,5,7,8-tetramethyl-2H-benzopyranyl)alanine hydrochloride was evaluated for analgesic activity in the writhing test [cf. Koster et al., Fed. Proc., 18, 412 (1959)], local anesthetic activity in the tail pinch test [cf. Bianchi, C., Brit. J. Pharmacol., 11, 104 (1956)] and bronchodilator activity in lung perfusion [cf. Luduena, F. P., Arch. Int. Pharmacodyn., 111, 392 (1957)].

[6] = tested on: isoprenaline-induced bronchodilation; test: Bronchodilator activity, lung perfusion; conditions: Table 8: guinea pig, in vitro, 300 μg
Description: as §1
>40% reduction in Inhibited

[7] = Local anesthetic activity, tail pinch test; type: in vivo, Mouse; conditions: s.c., 3%
Description: as §1

[8] = Acute toxicity (oral administration); conditions: mouse, in vivo, male mice
Text: Among the chroman compounds (I), the chroman compounds (I-2) show excellent analgesic activity. In addition, these compounds have low toxicity. […] So, the chroman compounds (I-2) can be used as an analgesic.

| SMILES | Absorbance, solution after 1 hr. of heating [1] | Absorbance, solution after 2 hrs. of heating [1] | Absorbance, solution after 3 hrs. of heating [1] | Time till POV = 100 meq/kg [2] [h] | also measured |
| --- | --- | --- | --- | --- | --- |
| O=C1OC(C(O)CO)C(O)=C1O (centres unmarked) [Sodium erithorbate, reference compound] | 0.11 | 0.17 | 0.18 |  |  |
| Cc1cc2c(c(C)c1O)CCC(C)(CC(N)C(=O)O)O2 (centres unmarked) | 0.02 | 0.03 | 0.04 |  |  |
| CCOC(=O)C(O)CC1(C)CCc2c(C)c(O)c(C)c(C)c2O1 (centres unmarked) |  |  |  | 2.3 |  |
| Cc1cc(O)cc2c1OC(C)(CC(O)C(=O)O)CC2 (centres unmarked) |  |  |  | 2.3 |  |
| CC1(CC(N)C(=O)O)CCc2cc(O)ccc2O1 (centres unmarked) | 0.02 | 0.03 | 0.03 |  |  |
| COc1c(O)c(C)c2c(c1OC)OC(C)(CC(O)C(=O)O)CC2 (centres unmarked) |  |  |  | 2.2 |  |
| Cc1c2c(c3ccccc3c1O)OC(C)(CC(N)C(=O)O)CC2 (centres unmarked) | 0.02 | 0.03 | 0.05 |  |  |
| COc1c(O)c(C)c2c(c1OC)OC(C)(CC(N)C(=O)O)CC2 (centres unmarked) | 0.02 | 0.03 | 0.05 |  |  |
| Cc1c(C)c2c(c(C)c1O)CCC(C)(CCCC(C)CCCC(C)CCCC(C)C)O2 (stereo not drawn) [α-Tocopherol, reference compound] | 0.07 | 0.19 | 0.30 | 1.4 |  |
| Cc1c(C)c2c(c(C)c1O)CCC(C)(CC(N)CO)O2 (centres unmarked) [Example 17, 2-amino-3-[2-(2,3-dihydro-6-hydroxy-2,5,7,8-tetramethyl-2H-benzopyranyl)]-1-propanol] |  |  |  |  | inhibition [3]: 83.7% |
| Cc1c(C)c2c(c(C)c1O)CCC(C)(CC(N)C(=O)O)O2 (centres unmarked) [drawing 70] | 0.02 | 0.03 | 0.04 |  |  |
| CCCCCCCCCCCCCCCCCCOC(=O)C(N)CC1(C)CCc2c(C)c(O)c(C)c(C)c2O1 (centres unmarked) | 0.03 | 0.04 | 0.07 |  |  |
| CC(=O)Oc1ccccc1C(=O)O [Aspirin, reference compound] |  |  |  |  | inhibition [3]: 40.8% |
| Cc1c(C)c2c(c(C)c1OC(C)(C)C(=O)OCCN(C)C)CCC(C)(C)O2 [2-(N,N-dimethylamino)ethyl 2-(2,2,5,7,8-pentamethyl-6-chromanyloxy)isobutyrate] |  |  |  |  | cholesterol lowering activity [4]: have cholesterol lowering activity |
| Cc1c2c(c3ccccc3c1O)OC(C)(CC(O)C(=O)O)CC2 (centres unmarked) |  |  |  | 1.9 |  |
| CCOC(=O)C(O)C1(C)CCc2c(C)c(O)c(C)c(C)c2O1 (centres unmarked) |  |  |  | 2.1 |  |

| SMILES | Absorbance, solution after 1 hr. of heating [1] | Absorbance, solution after 2 hrs. of heating [1] | Absorbance, solution after 3 hrs. of heating [1] | Time till POV = 100 meq/kg [2] [h] | also measured |
| --- | --- | --- | --- | --- | --- |
| Cc1c(C)c2c(c(C)c1OC(C)(C)COC(=O)c1cccnc1)CCC(C)(C)O2 [2-(2,2,5,7,8-pentamethyl-6-chromanyloxy)isobutyl nicotinate] |  |  |  |  | cholesterol lowering activity [4]: have cholesterol lowering activity |
| COC(=O)C(O)CCC1(C)CCc2c(C)c(O)c(C)c(C)c2O1 (centres unmarked) |  |  |  | 2.1 |  |
| CCOC(=O)C(N)CC1(C)CCc2c(C)c(O)c(C)c(C)c2O1 (centres unmarked) | 0.02 | 0.03 | 0.05 |  |  |
| Cc1c(C)c2c(c(C)c1O)CCC(C)(CC(N)C(=O)O)O2 (centres unmarked) [drawing 62] | 0.02 | 0.03 | 0.03 |  |  |
| Cc1cc(O)cc2c1OC(C)(CC(N)C(=O)O)CC2 (centres unmarked) | 0.02 | 0.03 | 0.03 |  |  |
| O=C1O[C@H]([C@@H](O)CO)C(O)=C1O [Ascorbic acid, reference compound] | 0.10 | 0.21 | 0.30 |  |  |
| Cc1c(C)c2c(c(C)c1O)CCC(C)(CCC(O)C(=O)O)O2 (centres unmarked) |  |  |  | 2.0 |  |
| Cc1c(C)c2c(c(C)c1O)CCC(C)(C(N)C(=O)O)O2 (centres unmarked) | 0.02 | 0.03 | 0.03 |  |  |
| Cc1c(C)c2c(c(C)c1O)CCC(C)(C(O)C(=O)O)O2 (centres unmarked) |  |  |  | 2.3 |  |
| Cc1c(C)c2c(c(C)c1O)CCC(C)(CC(N)C(=O)O)O2 (stereo not drawn) [Example 1, β-(2,3-dihydro-6-hydroxy-2,5,7,8-tetramethyl-2H-benzopyranyl)alanine hydrochloride] |  |  |  |  | Activity observed (writhing score, criterion <50% of control group) ([5]; Rat, test 0.75 hr post-dose): 16%; inhibition of writhing ([5]; Table 8: rat): 84%; isoprenaline-induced bronchodilation (in words) [6]: An inhibition of isoprenaline-induced bronchodilation is also observed; Activity observed (animals protected) ([7]; Mouse, tested at 15 min post-dose, criterion >3/5 protected): 5/5; local anesthetic activity (in words) ([7]; Table 8: mouse): demonstrated a local anesthetic activity; inhibition [3]: 96.1%; LD50 [8]: 2620 mg/kg |
| Cc1c(C)c2c(c(C)c1O)CCC(C)(CN)O2 (centres unmarked) [Example 19, (2,3-dihydro-6-hydroxy-2,5,7,8-tetramethyl-2H-benzopyranyl)methylamine hydrochloride] |  |  |  |  | inhibition [3]: 65.6% |
| CC1(CC(O)C(=O)O)CCc2cc(O)ccc2O1 (centres unmarked) |  |  |  | 2.2 |  |
| Cc1c(C)c2c(c(C)c1O)CCC(C)(CC(O)C(=O)O)O2 (centres unmarked) |  |  |  | 2.4 |  |
| Cc1c(C)c2c(c(C)c1O)CCC(C)(CCC(N)C(=O)O)O2 (centres unmarked) | 0.02 | 0.03 | 0.04 |  |  |
| Cc1c(C)c2c(c(C)c1O)CCC(C)(CC(N)C(=O)O)O2 (centres unmarked) [drawing 71] | 0.02 | 0.03 | 0.03 |  |  |

Reference: patent publication US4694090A, “Chroman compounds useful as analgerics and antioxidants” (Kuraray Co., Ltd., priority 1984, dated 1987)
